# Columns and labels:
# Type in all cases: cell-based
# [1] = tested on: MADD; assay: Phosphorylation of endogenous MADD in HeLa cells (anti-phospho antibodies); details: LY 10 μM 1 h, IGF-1 150 ng/ml 20 minutes
# [2] = tested on: DR4; assay: Association of exogenous MADD with DR4 in HEK293 cells (immunoprecipitation)
# Method: (A) Phosphorylation status of MADD could influence its binding to DR4. HEK293 cells were transfected with wtMADD or MADD mutants. 36 h after transfection, the cells were harvested for immunoprecipitation using an anti-DR4 antibody followed by immunoblotting using an anti-YFP antibody to detect exogenous MADD. The membrane was reprobed with an anti-DR4 antibody to show the protein loading. (B) PI3K can influence the association of exogenous MADD with DR4. HEK293 cells were transfected with wtMADD. Twenty four hours after transfection, the cells were serum starved for 20 h. Further, they were treated with LY (10 μM) for 1 h, IGF-1 (150 ng/ml) for 20 minutes. Immunoprecipitation using an anti-DR4 antibody was followed by immunoblotting using anti-YFP or anti-DR4 antibody. (C) Akt can influence exogenous MADD association with DR4. HEK293 cells were co-transfected with wtMADD along with DN-Akt or the empty vector pcDNA3.1 (pcDNA). Thirty six hours after transfection, the cells were harvested for immunoprecipitation using anti-DR4 antibody followed by immunoblotting with an anti-YFP or an anti-DR4 antibody. (D) PI3K can influence the association of endogenous MADD with DR4. HeLa cells were serum starved for 20 h, then treated with LY (10 μM) for 1 h, IGF-1 (150 ng/ml) for 20 minutes. Immunoprecipitation using an anti-DR4 antibody was followed by immunoblotting with an anti-MADD or an anti-DR4 antibody. (E) Akt can influence the association of endogenous MADD with DR4. HeLa cells were transfected with DN-Akt or pcDNA. Thirty six hours after transfection, the cells were collected for immunoprecipitation using an anti-DR4 antibody followed by immunoblotting with an anti-MADD antibody.
# MADD can bind to DR4 and thereby block the activation of the extrinsic apoptotic pathway. […] Stimulation of PI3K by IGF-1 increased, while inhibition by LY reduced, the association between wtMADD and DR4 (FIG. 15B). […] This interaction was reduced in the presence of LY (FIG. 15D) or DN-Akt (FIG. 15E).
# Immunoprecipitation. Immunoprecipitations were performed using standard procedures. The samples were precleared with 10% (vol/vol) Protein-A agarose (Roche) for 1 h on a rocking platform. Specific antibodies were added and rocked for 1 h. Immunoprecipitates were captured by incubating with 10% (vol/vol) Protein-A agarose for an hour. The agarose beads were spun down and washed three times with NET/NP40 buffer (150 mM NaCl, 2 mM EDTA, 50 mM Tris-HCl pH 7.5, 0.1% NP-40). The antigens were released and denatured by adding SDS sample buffer. Immunoblots were prepared and analysed as described above.
# [3] = tested on: MADD; assay: Phosphorylation of exogenous wtMADD in HEK293 cells (anti-phospho antibodies); details: HEK293 transfected with wtMADD; LY 10 μM 1 h, IGF-1 150 ng/ml 20 minutes
# Method: (A) In vitro phosphorylation of rMADD by Akt. GST-wtMADD or -MADD mutants were expressed in bacteria, purified, and then incubated with rAkt and γ[^32P] ATP. After 1 h incubation at 30° C., the products were resolved on SDS-PAGE and ^32P-labeled proteins were visualized by autoradiography. (B) MADD is labeled by [^32P]orthophosphate in vivo. HEK293 cells were transfected with wtMADD or MADD mutant constructs. Twenty-four hours after transfection cells were incubated with 0.3 mCi/ml [32P]orthophosphate for 6 h. MADD was immunoprecipitated with an anti-YFP antibody. The precipitated MADD was separated by SDS-PAGE, transferred to a nitrocellulose membrane, and subjected to autoradiography. Loaded MADD was visualized by staining the same membrane with an anti-YFP antibody. (C) HEK293 cells were transfected with cDNAs for wtMADD or MADD mutants and. 36 h later the cells were harvested for immunoblotting using the anti-phospho-S-70, -T-173 or -T-1041 antibodies. An anti-YFP antibody was used to detect exogenous MADD. (D) HEK293 cells were transfected with wtMADD and 24 hours later cells were serum starved for 20 h. Subsequently, they were treated with LY (10 μM) for 1 h and/or IGF-1 (150 ng/ml) for 20 minutes. The cell lysates were immunoblotted and probed with anti phospho-specific antibodies or an anti-YFP antibody. […]
# [4] = tested on: Akt and MADD; assay: TRAIL treatment of HeLa cells: Akt and MADD phosphorylation, caspase-8 activation (immunoblot); details: TRAIL 50 ng/ml
# Method: (A) TRAIL treatment reduces the levels of Akt and MADD phosphorylation, and leads to caspase-8 activation. Hela cells were treated with TRAIL (50 ng/ml). The phosphorylation level of Akt was analyzed by immunoblotting using an anti-phospho Akt antibody. The phosphorylation levels of MADD was analyzed by immunoblotting using the anti-phospho T1041 antibody. Caspase-8 activation was analyzed by immunoblotting using an anti-caspase-8 antibody. (B) TRAIL induces FADD-procaspase-8 binding depending upon MADD phosphorylation status. HeLa cells were transfected either with caAkt or pcDNA3.1 empty vector. Cells were treated with TRAIL for 1 h. The MADD phosphorylation was analyzed by immunoblotting using the anti-phospho T1041 antibody. The association of procaspase-8 and FADD was analyzed by immunoprecipitation using an anti-FADD antibody followed by immunoblotting using an anti-caspase-8 antibody. […] 24 h later cells were treated with TRAIL (50 ng/ml) for 4 hours and caspase-8 activity was analyzed. *p<0.05 vs TRAIL+caAkt. […] The localizations of phosphorylated and nonphosphorylated forms of MADD in the membrane and cytosolic fractions were analyzed by immunoblotting using the anti-phospho T1041 antibody. […] The Bax distribution in cytoplasm and HM was analyzed by immunoblotting using an anti-Bax antibody. […] The distributions of Bax in cytoplasm and HM were analyzed as described for (E). […]
substance,measurement,setting,value
insulin-like growth factor-1 [IGF-1],Phosphorylation of endogenous MADD,[1],phosphorylated at all three sites
same,Association of exogenous MADD with DR4,[2],increased
same,"S70, T173 and T1041 phosphorylation levels of MADD",[3],increased
tumor necrosis factor-related apoptosis-inducing ligand [TRAIL],Caspase-8 activation,[4],concomitant activation of caspase-8
same,Levels of phosphorylation of Akt and MADD,[4],reduced
